Results from ChEMBL document CHEMBL1201862, “PubChem BioAssay data set” (2004).
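Values below derive from 48-hour exposures of cells grown in 96-well plates, with endpoints linearly interpolated between the two concentrations bracketing the appropriate inhibition level. The concentration for 50% growth inhibition is given as GI50.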 Activity calls are given as the source filed them. Rule as the data show it: active = GI50 up to about 1.1 µM and inactive = higher.

What was measured:
Experiment in all cases: inhibition of tumour cell growth, NCI panel, 48 h
Hs-578T = test system: Hs-578T
UACC-257 = test system: UACC-257
HCT-116 = test system: HCT-116
SNB-75 = test system: SNB-75
NCI-H226 = test system: NCI-H226
SF-268 = test system: SF-268
UO-31 = test system: UO-31
OVCAR-3 = test system: OVCAR-3
SK-MEL-5 = test system: SK-MEL-5
T47D = test system: T47D
CAKI-1 = test system: CAKI-1
MDA-MB-231 = test system: MDA-MB-231
HT-29 = test system: HT-29
BT-549 = test system: BT-549
DU-145 = test system: DU-145
SNB-19 = test system: SNB-19
NCI-H460 = test system: NCI-H460
PC-3 = test system: PC-3
KM12 = test system: KM12
M14 = test system: M14

Measured: GI50

O=C(NCCN(CCNC(=O)c1cccc(O)c1O)CCNC(=O)c1cccc(O)c1O)c1cccc(O)c1O [TRENCAM]
inactive: Hs-578T 29.7 µM | UACC-257 19.5 µM | HCT-116 4.2 µM | SNB-75 22.2 µM | NCI-H226 14.8 µM | SF-268 2.06 µM | UO-31 14.9 µM | OVCAR-3 2.69 µM | SK-MEL-5 2.75 µM | T47D 9.73 µM | CAKI-1 21.9 µM | MDA-MB-231 6.07 µM | HT-29 5.31 µM | BT-549 23.2 µM | DU-145 6.98 µM | SNB-19 5.22 µM | NCI-H460 4.38 µM | PC-3 11.4 µM | KM12 4.4 µM | M14 5.55 µM

COC(=O)c1ccc(NCc2cc(O)ccc2O)cc1O
inactive: Hs-578T 15.7 µM | UACC-257 15.7 µM | HCT-116 17.5 µM | SNB-75 3.08 µM | NCI-H226 14 µM | SF-268 7.29 µM | UO-31 1.82 µM | OVCAR-3 3.6 µM | SK-MEL-5 12.6 µM | T47D 3.4 µM | CAKI-1 6.78 µM | MDA-MB-231 11 µM | HT-29 17.2 µM | BT-549 3.44 µM | DU-145 12.3 µM | SNB-19 13.2 µM | NCI-H460 14.4 µM | PC-3 4.89 µM | KM12 3.28 µM | M14 16.5 µM

O=C(NN=C(c1ccccc1)c1ccccc1)/C(O)=C/C(=O)c1ccc(Cl)cc1
inactive: Hs-578T 27.2 µM | UACC-257 37.3 µM | HCT-116 31.5 µM | SNB-75 33 µM | NCI-H226 41.2 µM | SF-268 36.9 µM | UO-31 29.8 µM | OVCAR-3 30.8 µM | SK-MEL-5 29.1 µM | T47D 30.2 µM | CAKI-1 > 100 µM | MDA-MB-231 11.9 µM | HT-29 44.3 µM | BT-549 38.1 µM | DU-145 73.1 µM | SNB-19 38.3 µM | NCI-H460 5.5 µM | PC-3 27.1 µM | KM12 45 µM | M14 > 100 µM

Cc1ccc(Nc2ncnc3sc(SCc4ccccc4)nc23)cc1
inactive: Hs-578T > 100 µM | UACC-257 > 100 µM | HCT-116 > 100 µM | SNB-75 > 100 µM | NCI-H226 > 100 µM | SF-268 > 100 µM | UO-31 56 µM | OVCAR-3 > 100 µM | SK-MEL-5 82.6 µM | T47D 84.7 µM | CAKI-1 26 µM | MDA-MB-231 > 100 µM | HT-29 36.1 µM | BT-549 > 100 µM | DU-145 27.3 µM | SNB-19 > 100 µM | NCI-H460 > 100 µM | PC-3 90.6 µM | KM12 > 100 µM | M14 > 100 µM

Cc1ccc(NC(=O)CCc2nnc3s/c(=C\C=C\c4ccccc4)c(=O)n23)cc1
inactive: Hs-578T > 78 µM | UACC-257 > 95.7 µM | HCT-116 > 100 µM | SNB-75 > 83.2 µM | NCI-H226 > 100 µM | SF-268 59.3 µM | UO-31 > 100 µM | OVCAR-3 44.9 µM | SK-MEL-5 > 95.5 µM | T47D > 31.6 µM | CAKI-1 > 100 µM | MDA-MB-231 > 100 µM | HT-29 > 100 µM | BT-549 > 63.8 µM | DU-145 > 100 µM | SNB-19 > 79.6 µM | NCI-H460 > 83.6 µM | PC-3 > 100 µM | KM12 61.8 µM | M14 > 100 µM

COC(=O)/C=C\C(C#N)(C#N)/N=C/c1ccc(Br)s1
inactive: Hs-578T 25.3 µM | UACC-257 15.1 µM | HCT-116 4.89 µM | SNB-75 15.2 µM | NCI-H226 3.18 µM | SF-268 18.5 µM | UO-31 2.39 µM | OVCAR-3 11 µM | SK-MEL-5 11.9 µM | T47D 3.52 µM | CAKI-1 2.45 µM | MDA-MB-231 2.18 µM | HT-29 2.35 µM | BT-549 4.79 µM | DU-145 10.7 µM | SNB-19 14.8 µM | NCI-H460 20.8 µM | PC-3 13.4 µM | KM12 16.3 µM | M14 3.1 µM

COc1ccc2c(c1)CCc1c-2[nH]c2ccc(OC)cc12
inactive: Hs-578T > 100 µM | UACC-257 > 100 µM | HCT-116 > 100 µM | SNB-75 > 100 µM | NCI-H226 36.4 µM | SF-268 > 100 µM | UO-31 > 100 µM | OVCAR-3 > 100 µM | SK-MEL-5 > 100 µM | T47D 20.8 µM | CAKI-1 > 100 µM | MDA-MB-231 > 100 µM | HT-29 7.21 µM | BT-549 > 100 µM | DU-145 > 100 µM | SNB-19 > 100 µM | NCI-H460 > 100 µM | PC-3 > 100 µM | KM12 > 100 µM | M14 > 100 µM
